# According to PubChem BioAssay AID212 (DTP/NCI, 2004):
# Values joined by “and” are separate entries in the source; they are usually repeats but may differ in a detail not shown here. Identical values can stand only once. Results filed as inconclusive are left out.
# System: BDF1 mice, colon carcinoma 38 sc, T/C %
# Experiment: NCI In Vivo Anticancer Drug Screen. Data for tumor model Colon Carcinoma 38 (subcutaneous) in B6D2F1 (BDF1) mice
# Settings: endpoint: median tumor weight (est.), schedule: Q07DX002 (ip), higher = larger tumour
# Method in brief: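 T/C readout: treated group (T) measurement over vehicle control group (C) measurement. Endpoint is survival or tumor size in mice bearing a transplanted tumor.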
# [1] = dose: 12.5 mg/kg/injection, vehicle: saline
# [2] = dose: 50.0 mg/kg/injection, vehicle: saline
# [3] = dose: 100.0 mg/kg/injection, vehicle: saline
# [4] = dose: 200.0 mg/kg/injection, vehicle: saline
smiles,measurement,setting,value
OCCN1CCN(CCCN2c3ccccc3Sc3ccc(C(F)(F)F)cc32)CC1,T/C,"dose: 3.12 mg/kg/injection, vehicle: saline",115 % of control
same,T/C,"dose: 6.25 mg/kg/injection, vehicle: saline",91 % of control
same,T/C,[1],61 % of control
same,T/C,"dose: 25.0 mg/kg/injection, vehicle: saline",67 % of control
same,T/C,[2],56 % of control
Nc1ccc(S(=O)(=O)Nc2cnc3c(Cl)cccc3n2)cc1,T/C,"dose: 250.0 mg/kg/injection, vehicle: DMSO",82 % of control
N=c1nc2n(cc1F)[C@@H]1O[C@H](CO)[C@@H](O)[C@@H]1O2,T/C,[3],118 % of control
same,T/C,"dose: 100.0 mg/kg/injection, vehicle: suspension in saline",117 % of control
same,T/C,[4],193 % of control
same,T/C,"dose: 200.0 mg/kg/injection, vehicle: suspension in saline",93 % of control
same,T/C,"dose: 400.0 mg/kg/injection, vehicle: suspension in saline",99 % of control
same,T/C,"dose: 800.0 mg/kg/injection, vehicle: saline",102 % of control
same,T/C,"dose: 1600.0 mg/kg/injection, vehicle: saline",53 % of control
same,T/C,"dose: 1600.0 mg/kg/injection, vehicle: suspension in saline",40 % of control
Nc1nc(F)nc2c1ncn2C1OC(COP(=O)(O)O)C(O)C1O (stereo unspecified),T/C,[1],184 % of control
same,T/C,[2],87 % of control
same,T/C,[3],116 % of control and 93 % of control
same,T/C,[4],82 % of control and 101 % of control
same,T/C,"dose: 400.0 mg/kg/injection, vehicle: saline",76 % of control and 83 % of control
CC(C)CCCCCCCCCCCCC(=O)NCC(=O)NC1C(C)OC(Nc2ncnc3nc[nH]c23)C(O)C1O (stereo unspecified),T/C,"dose: 0.5 mg/kg/injection, vehicle: distilled water + Tween-80",105 % of control
CC1=CC(C)(C)Nc2ccc(CSc3ccccc3)cc21,T/C,"dose: 6.25 mg/kg/injection, vehicle: DMSO",88 % of control
same,T/C,"dose: 12.5 mg/kg/injection, vehicle: DMSO",86 % of control
same,T/C,"dose: 12.5 mg/kg/injection, vehicle: saline + Tween-80 + alcohol",78 % of control
same,T/C,"dose: 25.0 mg/kg/injection, vehicle: DMSO",76 % of control
same,T/C,"dose: 25.0 mg/kg/injection, vehicle: saline + Tween-80 + alcohol",86 % of control
same,T/C,"dose: 50.0 mg/kg/injection, vehicle: DMSO",67 % of control
same,T/C,"dose: 50.0 mg/kg/injection, vehicle: saline + Tween-80 + alcohol",107 % of control
same,T/C,"dose: 100.0 mg/kg/injection, vehicle: DMSO",59 % of control
same,T/C,"dose: 100.0 mg/kg/injection, vehicle: saline + Tween-80 + alcohol",102 % of control
O=C(N/N=C\c1cc(Br)cc(Br)c1O)N/N=C/c1cc(Br)cc(Br)c1O,T/C,"dose: 12.5 mg/kg/injection, vehicle: saline with Tween-80",119 % of control
same,T/C,"dose: 100.0 mg/kg/injection, vehicle: saline with Tween-80",90 % of control
same,T/C,"dose: 200.0 mg/kg/injection, vehicle: saline with Tween-80",102 % of control
same,T/C,"dose: 400.0 mg/kg/injection, vehicle: saline with Tween-80",92 % of control
O=C(O)C1CC(c2ccccc2)=NN1c1ccccc1 (stereo unspecified),T/C,"dose: 25.0 mg/kg/injection, vehicle: water",114 % of control and 103 % of control
same,T/C,"dose: 100.0 mg/kg/injection, vehicle: water",65 % of control
same,T/C,"dose: 200.0 mg/kg/injection, vehicle: water",56 % of control and 69 % of control
